The structures appear in SMILES notation. pIC50: −log10 of the molar value. Counter-ions that a name gives are not always drawn.

The target of the assay is SHP2 (Homo sapiens (Human), UniProt Q06124). Briefly: SHP2 Allosteric Inhibition Assay (DiFMUP prompt fluorescence). Particulars: 0.25 nM SHP2 activated with 0.5 μM peptide IRS1_pY1172(dPEG8)pY1222; substrate DiFMUP 100 μM; 25° C. Format: biochemical.
SHP2, sequence (Q06124 whole entry): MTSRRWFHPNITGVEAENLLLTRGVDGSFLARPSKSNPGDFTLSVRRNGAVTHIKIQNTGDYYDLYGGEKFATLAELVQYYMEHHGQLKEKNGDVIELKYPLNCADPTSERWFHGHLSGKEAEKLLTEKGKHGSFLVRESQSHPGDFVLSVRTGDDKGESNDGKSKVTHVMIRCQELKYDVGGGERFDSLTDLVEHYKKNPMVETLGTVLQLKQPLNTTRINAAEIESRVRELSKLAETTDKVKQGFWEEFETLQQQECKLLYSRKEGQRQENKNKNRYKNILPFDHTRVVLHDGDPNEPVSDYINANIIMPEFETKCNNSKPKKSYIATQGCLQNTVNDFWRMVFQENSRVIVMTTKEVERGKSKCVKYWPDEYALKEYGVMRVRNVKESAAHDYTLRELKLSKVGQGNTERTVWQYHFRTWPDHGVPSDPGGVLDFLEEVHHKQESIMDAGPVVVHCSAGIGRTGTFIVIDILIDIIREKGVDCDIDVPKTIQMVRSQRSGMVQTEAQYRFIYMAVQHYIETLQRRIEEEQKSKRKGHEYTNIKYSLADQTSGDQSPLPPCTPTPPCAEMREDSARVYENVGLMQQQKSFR

With `COC(=O)NCC1(C)CCN(c2cnc3c(N4CCCc5cc(C#N)ccc54)n[nH]c3n2)CC1` [Compound 174, methyl ((1-(3-(6-cyano-3,4-dihydroquinolin-1(2H)-yl)-1H-pyrazolo[3,4-b]pyrazin-6-yl)-4-methylpiperidin-4-yl)methyl)carbamate], the pIC50 was not above 5.00.

Compound `CC1(CN)CCN(c2cnc3c(N4CCCc5nc(C(N)=O)ccc54)n[nH]c3n2)CC1` [Compound 175, 5-(6-(4-(aminomethyl)-4-methylpiperidin-1-yl)-1H-pyrazolo[3,4-b]pyrazin-3-yl)-5,6,7,8-tetrahydro-1,5-naphthyridine-2-carboxamide] had a pIC50 of more than 6.00.

Take `NCC1(CN)CCN(c2cnc3c(N4CCCc5ncccc54)n[nH]c3n2)CC1` [Compound 177, 1-[4-(aminomethyl)-1-[3-(1,2,3,4-tetrahydro-1,5-naphthyridin-1-yl)-1H-pyrazolo[3,4-b]pyrazin-6-yl]piperidin-4-yl]methanamine dihydrochloride]: the pIC50 was more than 6.00.

With `NC(C(=O)O)C1CCN(c2cnc3c(N4CCCc5ncccc54)n[nH]c3n2)CC1` (stereo not drawn) [Compound 178, 2-amino-2-{1-[3-(1,2,3,4-tetrahydro-1,5-naphthyridin-1-yl)-1H-pyrazolo[3,4-b]pyrazin-6-yl]piperidin-4-yl}acetic acid dihydrochloride], the pIC50 is 5.00 to 6.00.

As to `NCC1(N)CCN(c2cnc3c(N4CCCc5ncccc54)n[nH]c3n2)CC1` [Compound 179], the pIC50 is more than 6.00.

As to `NCC1(C(N)=O)CCN(c2cnc3c(N4CCCc5ncccc54)n[nH]c3n2)CC1` [Compound 180, 4-(aminomethyl)-1-(3-(3,4-dihydro-1,5-naphthyridin-1(2H)-yl)-1H-pyrazolo[3,4-b]pyrazin-6-yl)piperidine-4-carboxamide], the pIC50 is more than 6.00.

Regarding `CC1(CN)CCN(c2cnc3c(N4CCC(C(F)F)c5cc(C#N)ccc54)n[nH]c3n2)CC1` (stereo not drawn) [Compound 181, 1-{6-[4-(aminomethyl)-4-methylpiperidin-1-yl]-1H-pyrazolo[3,4-b]pyrazin-3-yl}-4-(difluoromethyl)-1,2,3,4-tetrahydroquinoline-6-carbonitrile], the pIC50 is more than 6.00.

`Cn1cc(-c2ccc3c(n2)CCCN3c2n[nH]c3nc(N4CCC(C)(CN)CC4)cnc23)cn1` [Compound 182]: the pIC50 is more than 6.00.

As to `C[C@H]1CCN(c2n[nH]c3nc(N4CCC(C)(CN)CC4)cnc23)c2ccc(-c3ncon3)cc21` [Compound 183, 1-(4-methyl-1-{3-[(4S)-4-methyl-6-(1,2,4-oxadiazol-3-yl)-1,2,3,4-tetrahydroquinolin-1-yl]-1H-pyrazolo[3,4-b]pyrazin-6-yl}piperidin-4-yl)methanamine], the pIC50 was more than 6.00.

The compound `CC1(CN)CCN(c2cnc3c(N4CCCc5c4cccc5S(C)(=O)=O)n[nH]c3n2)CC1` [Compound 185] showed a pIC50 of more than 6.00.

Turning to `CN1CCN(c2n[nH]c3nc(N4CCC(C)(CN)CC4)cnc23)c2cccnc21` [Compound 186], the pIC50 is more than 6.00.

Compound `CC(=O)N1CCN(c2n[nH]c3nc(N4CCC(C)(CN)CC4)cnc23)c2ccc(C#N)cc21` [Compound 187] showed a pIC50 of more than 6.00.

The compound `Cn1cc(-c2ccc3c(n2)OCCN3c2n[nH]c3nc(N4CCC(C)(CN)CC4)cnc23)cn1` [Compound 188] showed a pIC50 of more than 6.00.

`CNC(=O)N1CCN(c2n[nH]c3nc(N4CCC(C)(CN)CC4)cnc23)c2ccccc21` [Compound 189] had a pIC50 of more than 6.00.

`CC1(CN)CCN(c2cnc3c(N4CCNc5ccccc54)n[nH]c3n2)CC1` [Compound 190] gave a pIC50 of more than 6.00.

In turn, `CSc1cccc2c1CCCN2c1n[nH]c2nc(N3CCC(C)(CN)CC3)cnc12` [Compound 191] gave a pIC50 of more than 6.00.

In turn, `C[S+]([O-])c1cccc2c1CCCN2c1n[nH]c2nc(N3CCC(C)(CN)CC3)cnc12` (stereo not drawn) [Compound 192] showed a pIC50 of more than 6.00.

In turn, `CCC(=O)N1CCN(c2n[nH]c3nc(N4CCC(C)(CN)CC4)cnc23)c2ccccc21` [Compound 193] showed a pIC50 of more than 6.00.

Regarding `CC1(CN)CCN(c2cnc3c(N4CCN(C(=O)CO)c5ccccc54)n[nH]c3n2)CC1` [Compound 194, 1-(4-(6-(4-(aminomethyl)-4-methylpiperidin-1-yl)-1H-pyrazolo[3,4-b]pyrazin-3-yl)-3,4-dihydroquinoxalin-1(2H)-yl)-2-hydroxyethan-1-one], the pIC50 was more than 6.00.

For the compound `CN1CCN(c2n[nH]c3nc(N4CCC(C)(CN)CC4)cnc23)c2ccc(Cl)nc21` [Compound 195], the negative logarithm of the IC50 (pIC50) is more than 6.00.

Consider `C[C@H]1CCN(c2n[nH]c3nc(N4CCC(C)(CN)CC4)cnc23)c2ccc(-c3nnc[nH]3)nc21` [Compound 198, 1-(4-methyl-1-{3-[(4S)-4-methyl-6-(4H-1,2,4-triazol-3-yl)-1,2,3,4-tetrahydro-1,5-naphthyridin-1-yl]-1H-pyrazolo[3,4-b]pyrazin-6-yl}piperidin-4-yl)methanamine], for which the pIC50 is more than 6.00.

Compound `C[C@@H]1CCN(c2n[nH]c3nc(N4CCC(C)(CN)CC4)cnc23)c2ccc(-c3nnc[nH]3)nc21` [Compound 199, 1-(4-methyl-1-{3-[(4R)-4-methyl-6-(4H-1,2,4-triazol-3-yl)-1,2,3,4-tetrahydro-1,5-naphthyridin-1-yl]-1H-pyrazolo[3,4-b]pyrazin-6-yl}piperidin-4-yl)methanamine] showed a pIC50 of more than 6.00.

For the compound `C[C@@H]1OCC2(CCN(c3cnc4c(N5CCCc6ncccc65)n[nH]c4n3)CC2)C1O` (stereo partly drawn) [Compound 201, (3S)-8-(3-(3,4-dihydro-1,5-naphthyridin-1(2H)-yl)-1H-pyrazolo[3,4-b]pyrazin-6-yl)-3-methyl-2-oxa-8-azaspiro[4.5]decan-4-ol], the pIC50 is not above 5.00.

`NC1=NCCC12CCN(c1cnc3c(N4CCCc5ncccc54)n[nH]c3n1)CC2` [Compound 202, 8-(3-(3,4-dihydro-1,5-naphthyridin-1(2H)-yl)-1H-pyrazolo[3,4-b]pyrazin-6-yl)-2,8-diazaspiro[4.5]dec-1-en-1-amine dihydrochloride]: the pIC50 is more than 6.00.

`NC1CCCC12CCN(c1cnc3c(N4CCCc5ncccc54)n[nH]c3n1)C2` (stereo not drawn) [Compound 203, 2-(3-(3,4-dihydro-1,5-naphthyridin-1(2H)-yl)-1H-pyrazolo[3,4-b]pyrazin-6-yl)-2-azaspiro[4.4]nonan-6-amine]: the pIC50 is 5.00 to 6.00.

Compound `C[C@@H]1OCC2(CCN(c3cnc4c(N5CCCc6c5ccc(C#N)c6C5CC5)n[nH]c4n3)CC2)[C@@H]1N` [Compound 207] showed a negative logarithm of the IC50 (pIC50) of more than 6.00.

For the compound `Cc1c(C#N)ccc2c1CCCN2c1n[nH]c2nc(N3CCC4(CC3)CO[C@@H](C)[C@H]4N)cnc12` [Compound 208], the pIC50 was more than 6.00.

In turn, `C[C@@H]1OCC2(CCN(c3cnc4c(N5CCCc6c(-c7cnn(C)c7)cccc65)n[nH]c4n3)CC2)[C@@H]1N` [Compound 209] gave a pIC50 of more than 6.00.

`C[C@@H]1OCC2(CCN(c3cnc4c(N5CCCc6c5ccc(C#N)c6-c5cnn(C)c5)n[nH]c4n3)CC2)[C@@H]1N` [Compound 210] gave a pIC50 of 5.00 to 6.00.

For `N[C@H]1CCCC12CCN(c1cnc3c(N4CCCc5ncccc54)n[nH]c3n1)CC2` [Compound 211], the pIC50 was more than 6.00.

In the case of `N[C@@H]1CCCC12CCN(c1cnc3c(N4CCCc5ncccc54)n[nH]c3n1)CC2` [Compound 212], the pIC50 is more than 6.00.

`N[C@H]1COCC12CCN(c1cnc3c(N4CCCc5ncccc54)n[nH]c3n1)CC2` [Compound 213] showed a pIC50 of more than 6.00.

Compound `N[C@@H]1COCC12CCN(c1cnc3c(N4CCCc5ncccc54)n[nH]c3n1)CC2` [Compound 214] gave a pIC50 of more than 6.00.

With `O=C1NC2(CCN(c3cnc4c(N5CCCc6ncccc65)n[nH]c4n3)CC2)CO1` [Compound 215], the pIC50 was 5.00 to 6.00.

`NC1=NC2(CCN(c3cnc4c(N5CCCc6ncccc65)n[nH]c4n3)CC2)CO1` [Compound 216, 8-(3-(3,4-dihydro-1,5-naphthyridin-1(2H)-yl)-1H-pyrazolo[3,4-b]pyrazin-6-yl)-3-oxa-1,8-diazaspiro[4.5]dec-1-en-2-amine hydrochloride] gave a pIC50 of more than 6.00.

`C[C@@H]1OCC2(CCN(c3cnc4c(N5CCCc6cc(C#N)ccc65)n[nH]c4n3)CC2)[C@@H]1N` [Compound 217] had a pIC50 of more than 6.00.

`CC1CCN(c2n[nH]c3nc(N4CCC5(CC4)CO[C@@H](C)[C@H]5N)cnc23)c2ccc(C#N)cc21` (stereo partly drawn) [Compound 218] showed a pIC50 of more than 6.00.

Consider `C[C@@H]1CCN(c2n[nH]c3nc(N4CCC5(CC4)CO[C@@H](C)[C@H]5N)cnc23)c2ccc(C#N)cc21` [Compound 219], for which the pIC50 was more than 6.00.

With `C[C@@H]1OCC2(CCN(c3cnc4c(N5CC[C@H](C)c6cc(C#N)ccc65)n[nH]c4n3)CC2)[C@@H]1N` [Compound 220], the pIC50 was more than 6.00.

With `C[C@@H]1OCC2(CCN(c3cnc4c(N5CCc6c(-c7nccs7)cccc65)n[nH]c4n3)CC2)[C@@H]1N` [Compound 221], the pIC50 is more than 6.00.

`CC1CCN(c2n[nH]c3nc(N4CCC5(CC4)CNC(=O)C5)cnc23)c2cccnc21` (stereo not drawn) [Compound 222, 8-[3-(4-methyl-1,2,3,4-tetrahydro-1,5-naphthyridin-1-yl)-1H-pyrazolo[3,4-b]pyrazin-6-yl]-2,8-diazaspiro[4.5]decan-3-one] gave a pIC50 of 5.00 to 6.00.

The compound `CC1CCN(c2n[nH]c3nc(N4CCC5(CC4)CO[C@@H](C)[C@H]5N)cnc23)c2cc(F)c(C#N)cc21` (stereo partly drawn) [Compound 223] gave a pIC50 of more than 6.00.

`C[C@@H]1OCC2(CCN(c3cnc4c(N5CCCc6nc(-c7cnn(C)c7)ccc65)n[nH]c4n3)CC2)[C@@H]1N` [Compound 224, (3S,4S)-3-methyl-8-(3-(6-(1-methyl-1H-pyrazol-4-yl)-3,4-dihydro-1,5-naphthyridin-1(2H)-yl)-1H-pyrazolo[3,4-b]pyrazin-6-yl)-2-oxa-8-azaspiro[4.5]decan-4-amine] showed a pIC50 of more than 6.00.

For the compound `C[C@@H]1OCC2(CCN(c3cnc4c(N5CCCc6c5ccnc6N5CCOC5=O)n[nH]c4n3)CC2)[C@@H]1N` [Compound 225], the pIC50 is more than 6.00.

With `C[C@@H]1OCC2(CCN(c3cnc4c(N5CCCc6c5ccnc6-c5cnn(C)c5)n[nH]c4n3)CC2)[C@@H]1N` [Compound 226], the negative logarithm of the IC50 (pIC50) is more than 6.00.

The pIC50 is the IC50 on a negative log10 scale, so that one unit is a factor of ten.

(Values after patent US11591336B2 (Relay Therapeutics, Inc., priority 2017, dated 2023).)
